Laboratory results as given in PMC3032881 (Molecular Immunology, 2011).
Peptide text beside a SMILES is read from it.

What was measured:
[1] = target: HLA A*0201 on TAP deficient T2 cells (Homo sapiens, UniProt P04439, D140Y/D185E/D98H/E176V/E277Q/G131W/G231S/I119V/I121R/I166T/I218V/L300P/L318F/N151K/N90K/P208A/P217A/Q86G/Q94H/R138H/R169H/T345S); assay: T2-binding assay (cell surface pMHCI stabilization, FACS); format: cell-based
[2] = target: T1, HLA A*0201 (soluble recombinant pMHCI) (Homo sapiens, UniProt P04439, D140Y/D185E/D98H/E176V/E277Q/G131W/G231S/I119V/I121R/I166T/I218V/L300P/L318F/N151K/N90K/P208A/P217A/Q86G/Q94H/R138H/R169H/T345S); assay: Real time SPR pMHC stability assay; format: binding; conditions: pMHCI half-life converted from Langmuir dissociation analysis; BIAcore 3000, CM5 chip, ∼500 RUs, 10 μl/min, 15,000 s
T1 construct: made in house

EC50 [1] [µM] | Half-life [2] [h] | Compound
23.9 | – | CC(C)C[C@H](NC(=O)[C@@H](N)C(C)C)C(=O)N[C@@H](CO)C(=O)N[C@@H](CC(N)=O)C(=O)N[C@@H](CC(=O)O)C(=O)N[C@H](C(=O)N[C@@H](CS)C(=O)N[C@@H](C)C(=O)N[C@@H](CCC(N)=O)C(=O)N[C@H](C(=O)O)C(C)C)C(C)C
50 | – | CC[C@H](C)[C@H](NC(=O)[C@@H](N)C(C)C)C(=O)N[C@@H](CO)C(=O)N[C@@H](CC(N)=O)C(=O)N[C@@H](CC(=O)O)C(=O)N[C@H](C(=O)N[C@@H](CS)C(=O)N[C@@H](C)C(=O)N[C@@H](CCC(N)=O)C(=O)N[C@H](C(=O)O)C(C)C)C(C)C (H-VISNDVCAQV-OH)
– | 5.8 | CC(C)C[C@H](NC(=O)[C@@H](N)Cc1ccc(O)cc1)C(=O)N[C@@H](CCC(=O)O)C(=O)N1CCC[C@H]1C(=O)NCC(=O)N1CCC[C@H]1C(=O)N[C@H](C(=O)N[C@@H](C)C(=O)O)C(C)C (H-YLEPGPVA-OH; N-terminus and C-terminus assumed)

Compound | EC50 [1] [µM] | Half-life [2] [h]
CC[C@H](C)[C@H](NC(=O)[C@H](Cc1c[nH]c2ccccc12)NC(=O)[C@H](CCSC)NC(=O)[C@H](CC(C)C)NC(=O)[C@H](CC(C)C)NC(=O)[C@@H](N)CO)C(=O)N[C@H](C(=O)N[C@@H](CCC(N)=O)C(=O)N[C@@H](CC(C)C)C(=O)O)[C@@H](C)O | 43.2 | –
